Reference: patent US20240327412A1, “FACTOR XIIA INHIBITORS” (KALVISTA PHARMACEUTICALS LIMITED, priority 2021, published 2024)

target: T1, Human Factor XIIa (Homo sapiens, UniProt P00748); test: Determination of FXIIa inhibition (fluorogenic substrate H-DPro-Phe-Arg-AFC, IC50 assay); assay type: biochemical; details: substrate at Km concentration, 25° C.; category scale; read-out: Human FXII IC50 (nm)
T1 construct: Proteolytic cleavage of FXII to heavy and light chains of FXIIa dramatically increases catalytic activity; purchased Enzyme Research Laboratories
T1 sequence (P00748 373-615 limits assumed): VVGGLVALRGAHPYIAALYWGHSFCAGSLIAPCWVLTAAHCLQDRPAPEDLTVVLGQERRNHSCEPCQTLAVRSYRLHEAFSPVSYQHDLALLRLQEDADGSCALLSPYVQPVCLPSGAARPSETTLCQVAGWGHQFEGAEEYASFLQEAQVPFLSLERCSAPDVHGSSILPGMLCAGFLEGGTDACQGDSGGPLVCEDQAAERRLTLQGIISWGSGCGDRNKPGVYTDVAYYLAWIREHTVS
T1 sequence (P00748 20-372 partner limits assumed): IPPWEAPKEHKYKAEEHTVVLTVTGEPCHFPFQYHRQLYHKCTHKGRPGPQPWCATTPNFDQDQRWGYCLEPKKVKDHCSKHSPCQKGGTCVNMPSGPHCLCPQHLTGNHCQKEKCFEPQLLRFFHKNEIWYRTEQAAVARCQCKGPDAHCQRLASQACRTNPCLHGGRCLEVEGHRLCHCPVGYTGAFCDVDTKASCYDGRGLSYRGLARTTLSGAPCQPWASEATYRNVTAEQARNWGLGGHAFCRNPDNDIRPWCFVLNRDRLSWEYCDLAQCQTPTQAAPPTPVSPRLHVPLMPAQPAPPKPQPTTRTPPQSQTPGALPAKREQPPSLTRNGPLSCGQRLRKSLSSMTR
Procedure: In vitro inhibition of Factor XIIa was determined using an IC50 assay based on standard literature methods (see e.g Baeriswyl et al., ACS Chem. Biol., 2015, 10 (8) 1861; Bouckaert et al., European Journal of Medicinal Chemistry 110 (2016) 181). Human Factor XIIa (Enzyme Research Laboratories) was incubated at 25° C. with the fluorogenic substrate H-DPro-Phe-Arg-AFC (Peptide Protein Science) and various concentrations of the test compound. Protease activity was measured by monitoring the accumulation of liberated fluorescence from the substrate over 5 min at 25° C. The linear rate of fluorescence increase per minute was expressed as percentage (%) activity. The Km for the cleavage of the substrate by FXIIa was determined by standard transformation of the Michaelis-Menten equation. The compound inhibitor assays were performed at substrate Km concentration. IC50 values were calculated as the concentration of inhibitor giving 50% inhibition (IC50) of the uninhibited enzyme activity (100%).

| Compound | IC50 |
| --- | --- |
| Cc1cnc2ccc(OCC34COC(CNc5ccccc5C#N)(C3)C4)cn12 [Example 6658, 2-(((4-(((3-methylimidazo[1,2-a]pyridin-6-yl)oxy)methyl)-2-oxabicyclo[2.1.1]hexan-1-yl)methyl)amino)benzonitrile] | 10000 to 40000 nM |
| Cc1cnc2ccc(OCC34COC(CNc5ccccc5CC(F)(F)F)(C3)C4)cn12 [Example 6659, N-((4-(((3-methylimidazo[1,2-a]pyridin-6-yl)oxy)methyl)-2-oxabicyclo[2.1.1]hexan-1-yl)methyl)-2-(2,2,2-trifluoroethyl)aniline] | 40000 to 100000 nM |
| Cc1cnc2ccc(OCC34COC(CNc5ccnc(N)c5)(C3)C4)cn12 [Example 6660, N4-((4-(((3-methylimidazo[1,2-a]pyridin-6-yl)oxy)methyl)-2-oxabicyclo[2.1.1]hexan-1-yl)methyl)pyridine-2,4-diamine] | 3000 to 10000 nM |
| Cc1cnc2ccc(OCC34COC(CNc5cccnc5)(C3)C4)cn12 [Example 6661, N-((4-(((3-methylimidazo[1,2-a]pyridin-6-yl)oxy)methyl)-2-oxabicyclo[2.1.1]hexan-1-yl)methyl)pyridin-3-amine] | 10000 to 40000 nM |
| CC1(C)OC2(COc3cccc4c(N)nccc34)CC1(COc1ccn3ccnc3c1)C2 [Example 7702, 5-((4-((imidazo[1,2-a]pyridin-7-yloxy)methyl)-3,3-dimethyl-2-oxabicyclo[2.1.1]hexan-1-yl)methoxy)isoquinolin-1-amine] | 300 to 1000 nM |
| Nc1nccc2c(NCC34CC(COc5ccc6nncn6c5)(CCO3)C4)cccc12 [Example 10929, N5-((5-(([1,2,4]triazolo[4,3-a]pyridin-6-yloxy)methyl)-2-oxabicyclo[3.1.1]heptan-1-yl)methyl)isoquinoline-1,5-diamine] | 300 to 1000 nM |
| Cc1cnc2cc(OCC34CCOC(CNc5cccc6c(N)nccc56)(C3)C4)ccn12 [Example 10930, N5-((5-(((3-methylimidazo[1,2-a]pyridin-7-yl)oxy)methyl)-2-oxabicyclo[3.1.1]heptan-1-yl)methyl)isoquinoline-1,5-diamine] | 10 to 100 nM |
| Nc1nccc2c(NCC34CC(COc5ccc6c(c5)CNC6=O)(CCO3)C4)cccc12 [Example 10931, 5-((1-(((1-aminoisoquinolin-5-yl)amino)methyl)-2-oxabicyclo[3.1.1]heptan-5-yl)methoxy)isoindolin-1-one] | 10 to 100 nM |
| Nc1nccc2c(NCC34CC(COc5ccn6c(C(F)(F)F)cnc6c5)(CCO3)C4)cccc12 [Example 10932, N5-((5-(((3-(trifluoromethyl)imidazo[1,2-a]pyridin-7-yl)oxy)methyl)-2-oxabicyclo[3.1.1]heptan-1-yl)methyl)isoquinoline-1,5-diamine] | 100 to 300 nM |
| Cn1cc(Cl)c(OCC23CCOC(CNc4cccc5c(N)nccc45)(C2)C3)cc1=O [Example 10933, 4-((1-(((1-aminoisoquinolin-5-yl)amino)methyl)-2-oxabicyclo[3.1.1]heptan-5-yl)methoxy)-5-chloro-1-methylpyridin-2(1H)-one] | 1000 to 3000 nM |
| CC(C)n1ccc(OCC23CCOC(CNc4cccc5c(N)nccc45)(C2)C3)cc1=O [Example 10934, 4-((1-(((1-aminoisoquinolin-5-yl)amino)methyl)-2-oxabicyclo[3.1.1]heptan-5-yl)methoxy)-1-isopropylpyridin-2(1H)-one] | 300 to 1000 nM |
| Nc1nccc2c(NCC34CC(COc5ccon5)(CCO3)C4)cccc12 [Example 10936, N5-((5-((isoxazol-3-yloxy)methyl)-2-oxabicyclo[3.1.1]heptan-1-yl)methyl)isoquinoline-1,5-diamine] | 3000 to 10000 nM |
| Nc1nccc2c(NCC34CC(COc5ccncn5)(CCO3)C4)cccc12 [Example 10937, N5-((5-((pyrimidin-4-yloxy)methyl)-2-oxabicyclo[3.1.1]heptan-1-yl)methyl)isoquinoline-1,5-diamine] | 3000 to 10000 nM |
| Nc1nccc2c(NCC34CC(COc5ccc6c(c5)CCNC6=O)(CCO3)C4)cccc12 [Example 10938, 6-((1-(((1-aminoisoquinolin-5-yl)amino)methyl)-2-oxabicyclo[3.1.1]heptan-5-yl)methoxy)-3,4-dihydroisoquinolin-1(2H)-one] | 300 to 1000 nM |
| CN1CCc2cc(OCC34CCOC(CNc5cccc6c(N)nccc56)(C3)C4)ccc2C1=O [Example 10939, 6-((1-(((1-aminoisoquinolin-5-yl)amino)methyl)-2-oxabicyclo[3.1.1]heptan-5-yl)methoxy)-2-methyl-3,4-dihydroisoquinolin-1(2H)-one] | 300 to 1000 nM |
| Nc1nccc2c(NCC34CC(COc5ccc6c(c5)C(=O)NC6)(CCO3)C4)cccc12 [Example 10941, 6-((1-(((1-aminoisoquinolin-5-yl)amino)methyl)-2-oxabicyclo[3.1.1]heptan-5-yl)methoxy)isoindolin-1-one] | 300 to 1000 nM |
| Cn1cc(OCC23CCOC(CNc4cccc5c(N)nccc45)(C2)C3)ccc1=O [Example 10943, 5-((1-(((1-aminoisoquinolin-5-yl)amino)methyl)-2-oxabicyclo[3.1.1]heptan-5-yl)methoxy)-1-methylpyridin-2(1H)-one] | 1000 to 3000 nM |
| COc1cc(OCC23CCOC(CNc4cccc5c(N)nccc45)(C2)C3)ccn1 [Example 10944, N5-((5-(((2-methoxypyridin-4-yl)oxy)methyl)-2-oxabicyclo[3.1.1]heptan-1-yl)methyl)isoquinoline-1,5-diamine] | 1000 to 3000 nM |
| Cn1c(OCC23CCOC(CNc4cccc5c(N)nccc45)(C2)C3)cccc1=O [Example 10945, 6-((1-(((1-aminoisoquinolin-5-yl)amino)methyl)-2-oxabicyclo[3.1.1]heptan-5-yl)methoxy)-1-methylpyridin-2(1H)-one] | 3000 to 10000 nM |
| Cn1nncc1OCC12CCOC(CNc3cccc4c(N)nccc34)(C1)C2 [Example 10946, N5-((5-(((1-methyl-1H-1,2,3-triazol-5-yl)oxy)methyl)-2-oxabicyclo[3.1.1]heptan-1-yl)methyl)isoquinoline-1,5-diamine] | 3000 to 10000 nM |
| CC(C)c1cc(OCC23CCOC(CNc4cccc5c(N)nccc45)(C2)C3)ncn1 [Example 10948, N5-((5-(((6-isopropylpyrimidin-4-yl)oxy)methyl)-2-oxabicyclo[3.1.1]heptan-1-yl)methyl)isoquinoline-1,5-diamine] | 1000 to 3000 nM |
| CC(C)c1cc(OCC23CCOC(CNc4cccc5c(N)nccc45)(C2)C3)cc(=O)n1C [Example 10949, 4-((1-(((1-aminoisoquinolin-5-yl)amino)methyl)-2-oxabicyclo[3.1.1]heptan-5-yl)methoxy)-6-isopropyl-1-methylpyridin-2(1H)-one] | 300 to 1000 nM |
| Cn1c(C(F)(F)F)cc(OCC23CCOC(CNc4cccc5c(N)nccc45)(C2)C3)cc1=O [Example 10951, 4-((1-(((1-aminoisoquinolin-5-yl)amino)methyl)-2-oxabicyclo[3.1.1]heptan-5-yl)methoxy)-1-methyl-6-(trifluoromethyl)pyridin-2(1H)-one] | 300 to 1000 nM |
| Cc1cc(OCC23CCOC(CNc4cccc5c(N)nccc45)(C2)C3)ccn1 [Example 10953, N5-((5-(((2-methylpyridin-4-yl)oxy)methyl)-2-oxabicyclo[3.1.1]heptan-1-yl)methyl)isoquinoline-1,5-diamine] | 100 to 300 nM |
| COc1ccncc1OCC12CCOC(CNc3cccc4c(N)nccc34)(C1)C2 [Example 10954, N5-((5-(((4-methoxypyridin-3-yl)oxy)methyl)-2-oxabicyclo[3.1.1]heptan-1-yl)methyl)isoquinoline-1,5-diamine] | 3000 to 10000 nM |
| Cc1ccnc(OCC23CCOC(CNc4cccc5c(N)nccc45)(C2)C3)c1 [Example 10955, N5-((5-(((4-methylpyridin-2-yl)oxy)methyl)-2-oxabicyclo[3.1.1]heptan-1-yl)methyl)isoquinoline-1,5-diamine] | 1000 to 3000 nM |
| Cc1ccc(OCC23CCOC(CNc4cccc5c(N)nccc45)(C2)C3)nc1 [Example 10956, N5-((5-(((5-methylpyridin-2-yl)oxy)methyl)-2-oxabicyclo[3.1.1]heptan-1-yl)methyl)isoquinoline-1,5-diamine] | 1000 to 3000 nM |
| Cc1cccc(OCC23CCOC(CNc4cccc5c(N)nccc45)(C2)C3)n1 [Example 10957, N5-((5-(((6-methylpyridin-2-yl)oxy)methyl)-2-oxabicyclo[3.1.1]heptan-1-yl)methyl)isoquinoline-1,5-diamine] | 3000 to 10000 nM |
| c1cc2cc(NCC34CC(COc5ccn6ccnc6c5)(CCO3)C4)ccc2cn1 [Example 10958, N-((5-((imidazo[1,2-a]pyridin-7-yloxy)methyl)-2-oxabicyclo[3.1.1]heptan-1-yl)methyl)isoquinolin-6-amine] | 10000 to 40000 nM |
